Laboratory results taken from USRE39591E1, “6-O-substituted ketolides having antibacterial activity” (Abbott Laboratories, priority 1996, dated 2007).

Test system: up to 32 different microorganisms
Test: in vitro antibacterial activity (MIC), agar dilution on Brain Heart Infusion (BHI) agar with Steers replicator
Type: cell-based
Details: unit assumed
Description: Representative compounds of the present invention were assayed in vitro for antibacterial activity as follows: Twelve petri dishes containing successive aqueous dilutions of the test compound mixed with 10 mL of sterilized Brain Heart Infusion (BHI) agar (Difco 0148-01-5) were prepared. Each plate was inoculated with 1:100 (or 1:10 for slow-growing strains, such as Micrococcus and Streptococcus) dilutions of up to 32 different microorganisms, using a Steers replicator block. The inoculated plates were incubated at 35°-37° C. for 20 to 24 hours. In addition, a control plate, using BHI agar containing no test compound, was prepared and incubated at the beginning and end of each test.
An additional plate containing a compound having known susceptibility patterns for the organisms being tested and belonging to the same antibiotic class as the test compound was also prepared and incubated as a further control, as well as to provide test-to-test comparability. Erythromycin A was used for this purpose.
After incubation, each plate was visually inspected. The minimum inhibitory concentration (MIC) was defined as the lowest concentration of drug yielding no growth, a slight haze, or sparsely isolated colonies on the inoculum spot as compared to the growth control.

**Q.** For `CC[C@H]1OC(=O)[C@H](C)C(=O)[C@H](C)[C@@H](O[C@@H]2O[C@H](C)C[C@H](N(C)C)[C@H]2O)[C@@](C)(OCC(=O)c2ccccc2)C[C@@H](C)C(=O)[C@H](C)[C@H]2NC(=O)O[C@@]21C` [Example 239, Compound of Formula (IX): L is CO, T is NH, R is —CH2C(O)-phenyl], which MIC (organism code AA) is on record?
**A.** The MIC was 6.2 µg/mL.

**Q.** And the MIC (organism code BB)?
**A.** Its MIC is 6.2 µg/mL.

**Q.** What about the MIC (organism code CC) of the same compound?
**A.** Its MIC is over 100 µg/mL.

**Q.** And the MIC (organism code DD)?
**A.** Its MIC is 6.2 µg/mL.

**Q.** And the MIC (organism code EE)?
**A.** The MIC was 6.2 µg/mL.

**Q.** What about the MIC (organism code FF) of the same compound?
**A.** Its MIC is 6.2 µg/mL.

**Q.** What about the MIC (organism code GG) of the same compound?
**A.** Its MIC is over 100 µg/mL.

**Q.** What about the MIC (organism code HH) of the same compound?
**A.** Its MIC is 6.2 µg/mL.

**Q.** And the MIC (organism code II)?
**A.** The MIC was 1.56 µg/mL.

**Q.** What about the MIC (organism code JJ) of the same compound?
**A.** The MIC was 0.39 µg/mL.

**Q.** And the MIC (organism code KK)?
**A.** The MIC was 0.39 µg/mL.

**Q.** And the MIC (organism code LL)?
**A.** The MIC was 0.39 µg/mL.

**Q.** And the MIC (organism code MM)?
**A.** The MIC was over 100 µg/mL.

**Q.** And the MIC (organism code NN)?
**A.** The MIC was 1.56 µg/mL.

**Q.** And the MIC (organism code OO)?
**A.** The MIC was 0.39 µg/mL.

**Q.** What about the MIC (organism code PP) of the same compound?
**A.** Its MIC is 1.56 µg/mL.

**Q.** And the MIC (organism code QQ)?
**A.** The MIC was over 100 µg/mL.

**Q.** What about the MIC (organism code RR) of the same compound?
**A.** Its MIC is 6.1 µg/mL.

**Q.** What about the MIC (organism code SS) of the same compound?
**A.** Its MIC is over 100 µg/mL.

**Q.** What about the MIC (organism code TT) of the same compound?
**A.** Its MIC is over 100 µg/mL.

**Q.** What about the MIC (organism code UU) of the same compound?
**A.** The MIC was 50 µg/mL.

**Q.** And the MIC (organism code VV)?
**A.** The MIC was 3.1 µg/mL.

**Q.** And the MIC (organism code WW)?
**A.** The MIC was 64 µg/mL.

**Q.** And the MIC (organism code XX)?
**A.** Its MIC is 0.25 µg/mL.

**Q.** What about the MIC (organism code YY) of the same compound?
**A.** The MIC was 0.25 µg/mL.

**Q.** What about the MIC (organism code ZZ) of the same compound?
**A.** Its MIC is over 128 µg/mL.

**Q.** What about the MIC (organism code ZZA) of the same compound?
**A.** The MIC was 1 µg/mL.

**Q.** What does the source list for `CCC1OC(=O)C(C)C(=O)C(C)C(OC2OC(C)CC(N(C)C)C2O)C(C)(OCC#CC=Cc2ccccc2)CC(C)C(=O)C(C)C2NC(=O)OC12C` (stereo not drawn) [Example 291, Compound of Formula (IX): L is CO, T is NH, R is —CH2C≡C-(2-phenylethenyl)]?
**A.** MIC (organism code AA): 0.05 µg/mL; MIC (organism code BB): 0.05 µg/mL; MIC (organism code CC): > 100 µg/mL; MIC (organism code DD): 0.05 µg/mL; MIC (organism code EE): 0.05 µg/mL; MIC (organism code FF): 0.05 µg/mL; MIC (organism code GG): > 100 µg/mL; MIC (organism code HH): 0.05 µg/mL; MIC (organism code II): 0.02 µg/mL; MIC (organism code JJ): ≤ 0.005 µg/mL; MIC (organism code KK): ≤ 0.005 µg/mL; MIC (organism code LL): ≤ 0.005 µg/mL; MIC (organism code MM): 3.1 µg/mL; MIC (organism code NN): 0.1 µg/mL; MIC (organism code OO): ≤ 0.005 µg/mL; MIC (organism code PP): 0.05 µg/mL; MIC (organism code QQ): 25 µg/mL; MIC (organism code RR): 0.1 µg/mL; MIC (organism code SS): 50 µg/mL; MIC (organism code TT): > 100 µg/mL; MIC (organism code UU): 0.39 µg/mL; MIC (organism code VV): 0.01 µg/mL; MIC (organism code WW): 2 µg/mL; MIC (organism code XX): ≤ 0.004 µg/mL; MIC (organism code YY): ≤ 0.004 µg/mL; MIC (organism code ZZ): 1 µg/mL; MIC (organism code ZZA): 0.125 µg/mL

**Q.** For `CCC1OC(=O)C(C)C(=O)C(C)C(OC2OC(C)CC(N(C)C)C2O)C(C)(OCC=Cc2ccc(F)c3ccccc23)CC(C)C(=O)C(C)C2NC(=O)OC12C` (stereo not drawn) [Example 279, Compound of Formula (IX): L is CO, T is NH2, R is —CH2CH═CH-(4-fluoronaphthyl)], which MIC (organism code AA) is on record?
**A.** Its MIC is 0.39 µg/mL.

**Q.** What about the MIC (organism code BB) of the same compound?
**A.** The MIC was 0.39 µg/mL.

**Q.** What about the MIC (organism code CC) of the same compound?
**A.** The MIC was 50 µg/mL.

**Q.** And the MIC (organism code DD)?
**A.** Its MIC is 0.78 µg/mL.

**Q.** What about the MIC (organism code EE) of the same compound?
**A.** The MIC was 0.39 µg/mL.

**Q.** What about the MIC (organism code FF) of the same compound?
**A.** Its MIC is 0.39 µg/mL.

**Q.** What about the MIC (organism code GG) of the same compound?
**A.** The MIC was 50 µg/mL.

**Q.** And the MIC (organism code HH)?
**A.** Its MIC is 0.39 µg/mL.

**Q.** And the MIC (organism code II)?
**A.** Its MIC is 0.2 µg/mL.

**Q.** What about the MIC (organism code JJ) of the same compound?
**A.** The MIC was 0.05 µg/mL.

**Q.** And the MIC (organism code KK)?
**A.** Its MIC is 0.02 µg/mL.

**Q.** What about the MIC (organism code MM) of the same compound?
**A.** Its MIC is 25 µg/mL.

**Q.** What about the MIC (organism code NN) of the same compound?
**A.** Its MIC is 0.39 µg/mL.

**Q.** And the MIC (organism code OO)?
**A.** The MIC was 0.05 µg/mL.

**Q.** What about the MIC (organism code PP) of the same compound?
**A.** The MIC was 0.39 µg/mL.

**Q.** What about the MIC (organism code QQ) of the same compound?
**A.** Its MIC is over 100 µg/mL.

**Q.** What about the MIC (organism code RR) of the same compound?
**A.** Its MIC is 1.56 µg/mL.

**Q.** And the MIC (organism code SS)?
**A.** The MIC was over 100 µg/mL.

**Q.** And the MIC (organism code TT)?
**A.** The MIC was over 100 µg/mL.

**Q.** What about the MIC (organism code UU) of the same compound?
**A.** Its MIC is 0.78 µg/mL.

**Q.** And the MIC (organism code VV)?
**A.** Its MIC is 0.78 µg/mL.

**Q.** What about the MIC (organism code WW) of the same compound?
**A.** Its MIC is 8 µg/mL.

**Q.** What about the MIC (organism code XX) of the same compound?
**A.** Its MIC is 0.03 µg/mL.

**Q.** And the MIC (organism code YY)?
**A.** Its MIC is 0.03 µg/mL.

**Q.** And the MIC (organism code ZZ)?
**A.** Its MIC is 32 µg/mL.

**Q.** And the MIC (organism code ZZA)?
**A.** Its MIC is 0.5 µg/mL.

**Q.** `CC[C@H]1OC(=O)[C@H](C)C(=O)[C@H](C)[C@@H](O[C@@H]2O[C@H](C)C[C@H](N(C)C)[C@H]2O)[C@@](C)(OCC#N)C[C@@H](C)C(=O)[C@H](C)[C@@H](O)[C@]1(C)O` [Example 7, Compound of Formula (VIII): X is O, R is —CH2CN] was tested. Which MIC (Candida albicans CCH 442 (code TT)) did it give?
**A.** The MIC was over 100 µg/mL.

**Q.** And the MIC (Enterococcus faecism ATCC 8043 (code II))?
**A.** Its MIC is 1.56 µg/mL.

**Q.** And the MIC (Escherichia coli DC-2 (code SS))?
**A.** Its MIC is over 100 µg/mL.

**Q.** And the MIC (Escherichia coli JUHL (code QQ))?
**A.** The MIC was over 100 µg/mL.

**Q.** And the MIC (Escherichia coli SS (code RR))?
**A.** The MIC was 3.1 µg/mL.

**Q.** What about the MIC (Micrococcus luteus ATCC 4698 (code PP)) of the same compound?
**A.** Its MIC is 1.56 µg/mL.

**Q.** What about the MIC (Micrococcus luteus ATCC 9341 (code OO)) of the same compound?
**A.** The MIC was 0.39 µg/mL.

**Q.** And the MIC (Mycobacterium smegmatis ATCC 114 (code UU))?
**A.** Its MIC is over 100 µg/mL.

**Q.** And the MIC (Nocardia Asteroides ATCC9970 (code VV))?
**A.** Its MIC is 0.78 µg/mL.

**Q.** What about the MIC (Staphylococcus aureus 1775 (code GG)) of the same compound?
**A.** The MIC was over 100 µg/mL.

**Q.** And the MIC (Staphylococcus aureus A5177 (code BB))?
**A.** Its MIC is 3.1 µg/mL.

**Q.** And the MIC (Staphylococcus aureus A-5278 (code CC))?
**A.** The MIC was over 100 µg/mL.

**Q.** And the MIC (Staphylococcus aureus ATCC 6538P (code AA))?
**A.** The MIC was 3.1 µg/mL.

**Q.** And the MIC (Staphylococcus aureus CMX 553 (code FF))?
**A.** Its MIC is 3.1 µg/mL.

**Q.** And the MIC (Staphylococcus aureus CMX 642A (code DD))?
**A.** The MIC was 3.1 µg/mL.

**Q.** What about the MIC (Staphylococcus aureus NCTC10649M (code EE)) of the same compound?
**A.** The MIC was 3.1 µg/mL.

**Q.** What about the MIC (Staphylococcus epidermidis 3519 (code HH)) of the same compound?
**A.** The MIC was 3.1 µg/mL.

**Q.** And the MIC (Streptococcus agalactiae CMX 508 (code KK))?
**A.** Its MIC is 0.78 µg/mL.

**Q.** What about the MIC (Streptococcus bovis A-5169 (code JJ)) of the same compound?
**A.** The MIC was 0.78 µg/mL.

**Q.** And the MIC (Streptococcus pyogenes 930 (code MM))?
**A.** Its MIC is over 100 µg/mL.

**Q.** What about the MIC (Streptococcus pyogenes EES61 (code LL)) of the same compound?
**A.** The MIC was 1.56 µg/mL.

**Q.** What about the MIC (Streptococcus pyogenes PIU 2548 (code NN)) of the same compound?
**A.** The MIC was 3.1 µg/mL.
